The experiment deals with Class III HCT116 mTRdm-fLUC 7-5 and 12-16 cell lines. In words: Western blot of fLUC protein in 15-Assay cell extracts. Type of experiment: cell-based, human. The procedure:
The remaining cell suspension was centrifuged as described above and the pellets stored at −70/−80° C. for subsequent protein extraction and Western blot analysis. For protein extraction, cells were thawed on ice and resuspended in equal volumes of the Suspension Buffer (100 mM NaCl, 10 mM TrisHCl [pH 7.6], 1 mM EDTA, 1 mg/mL aprotinin, 100 μg/mL PMSF) and the 2×SDS Buffer (100 mM TrisHCl (pH6.8), 4% SDS, 20% glycerol, 20 mM DTT, 10 mM EDTA, 2× Roche Protease Inhibitor Cocktail). The extracts were homogenized by vigorous mixing and boiling for 3 min. Additional homogenization (when needed) was achieved by passing samples through a syringe fitted with a 26 G needle. At this point, the extracts were either analyzed by SDS-PAGE gel or stored at −80° C.
To produce a near quantitative Western blot analysis, equal protein concentrations are loaded on Western blots. […] The fLUC protein was detected using an anti-fLUC primary antibody (Sigma; 1:1000 dilution). After incubation with a primary antibody and extensive washing with 1×PBS-T, proteins binding the primary antibody were detected by incubation with a horseradish peroxidase (HRP) conjugated anti-rabbit secondary antibody (Amersham; 1:10000 dilution). Following incubation with the secondary antibody and extensive washing, reactive proteins were detected with the ECL reagent system (Amersham) as described by the vendor. […]
On the technique in general: In western blotting, separated proteins are transferred to a membrane and probed.

The source of these data is US9388405B2, “Method for identifying a subpopulation of mammalian cells with distinctive ribosome translation profiles” (priority 2009, dated 2016).

Structures are written as SMILES. Peptide text beside a SMILES is read from it. * marks the point of attachment. Cbz = O=C(OCc1ccccc1)*

In the case of `CC(C)C[C@@H](C=O)NC(=O)[C@H](CC(C)C)NC(=O)[C@H](CC(C)C)NC(=O)OCc1ccccc1` [MG132, Z-Leu-Leu-Leu-aldehyde] (Cbz-Leu-Leu-Leu-aldehyde), the “fLUC protein levels by Western blot” value runs as follows: (HCT116 mTRdm-fLUC 7-5, 15-Assay) “significant fLUC protein levels”; (HCT116 mTRdm-fLUC 12-16, 15-Assay, 6 hrs) “extremely high protein levels”.
